Reference: patent EP2667887B1, “PHARMACEUTICAL COMPOSITION COMPRISING THE PEPTIDE GLU-ASP-GLY AND USE FOR TREATING HELICOBACTER PYLORI INDUCED GASTRODUODENAL DISEASES” («Garmonia», Ltd., priority 2011, dated 2012)

How the values were obtained:
[1] = tested on: human gastric epithelium cells SGC7901; test: Effect on Helicobacter pylori-induced mitochondrial mechanisms of apoptosis in gastric epitheliocytes (mito-GFP confocal microscopy); assay type: cell-based; details: peptide 10 µM 30 minutes before Helicobacter pylori (strain Cag J117), 7 hours
Description: To evaluate the biological activity and effects of peptide H-Glu-Asp-Gly-OH on mitochondrial mechanisms of apoptosis in gastric epitheliocytes, induced by Helicobacter pylori germs, human gastric epithelium cells SGC7901 were studied. The cells were cultivated at 37°C in a damp incubation medium containing 50 mL/L CO2 in DMEM (Dulbecco's Modified Eagle's Medium, ICN Biomedicals) and 10% calf embryonic serum. A preliminary separation of cells for passaging was carried out in the ratio of 1:3-1:5 using a mixture of 0.125% trypsin, 0.02M EDTA (ethylenediaminetetraacetic acid), 0.02% glucose dissolved in a phosphate buffer. The cells were placed on a 24-well plate in the amount of 10^6 cells per well. The cells were passaged in a cultivation medium for 5 days and then taken for study.
On the 5th day after the beginning of cell passaging the peptide H-Glu-Asp-Gly-OH in the dose of 10 µM was administered in the cultivation medium, and in 30 minutes of incubation the cells were taken for study. Klacid antibiotic (clarithromycin, Abbott) in the dose of 500 ng/mL was administered to the cultures in the same conditions as positive control. […]
The status of isolated mitochondria was evaluated using immunofluorescent confocal laser microscopy. […]
Confocal microscopy of mitochondria with optical density evaluation was performed in an inverted confocal microscope Olympus Fluoview CM FV300-IX70 using an apochromatic lens 606 UPlan (Olympus). A 488 nm excitation wave of argon laser was used in each chamber to specify mito-GFP fluorescence that verifies the structure of mitochondria.

[2] = Acute toxicity study, single administration; assay type: in vivo, white mongrel male mice; details: mice, single intramuscular administration, 1-5 mg/kg; dose exceeds the therapeutic dose by more than 5000 times
Description: (§1) General toxicity of peptide H-Glu-Asp-Gly-OH was studied in accordance with the requirements of "Manual for Experimental (Pre-Clinical) Study of New Pharmacological Substances" (2000): acute toxicity in case of a single administration of the preparation, as well as subacute and chronic toxicity in case of a long-term administration of the peptide.
Acute toxicity study was carried out on 66 white mongrel male mice with body weight 20-22 g. The animals were randomly subdivided into 6 equal groups. The preparation was administered to the animals once, intramuscularly in the doses of 1, 2, 3, 4, 5 mg/kg in 0,25 ml of sterile 0,9% NaCl solution. Control animals were treated with 0,9% NaCl solution in the same volume.

[3] = Chronic toxicity study, 6 months; assay type: in vivo, male guinea pigs; details: guinea pigs
Text: as §1
Chronic toxicity was studied for 6 months basing on the duration of the recommended clinical administration of the preparation on 92 male guinea pigs with body weight 310-350 g. Experimental animals were treated with the peptide daily, once a day, intramuscularly for 6 months in the doses of 1 µg/kg, 0,1 mg/kg, 1 mg/kg in 0,5 ml of sterile 0,9% NaCl solution. Control animals received sterile 0,9% NaCl solution according to the same scheme and in the same volume. The following indices were identified in the peripheral blood of the animals using traditional methods: quantity of erythrocytes, hemoglobin, reticulocytes, thrombocytes, leukocytes, leukocyte formula, erythrocyte sedimentation rate (ESR), erythrocyte resistance. Further, total protein was identified in the blood serum by the Lowry method, as well as potassium and sodium using plasma spectrophotometry method. […]

Substance: glutamyl-aspartyl-glycine [H-Glu-Asp-Gly-OH]
- mitochondrial GFP expression by optical density ([1]; control 2.57±0.23, H. pylori alone 0.35±0.05): 2.48±0.17 conv. units
- mitochondrial GFP expression by expression area ([1]; control 3.42±0.19, H. pylori alone 0.63±0.03): 3.84±0.20%
- acute toxicity [2]: does not cause toxic reactions
- chronic toxicity ([3]; intramuscularly daily for 6 months, 1 µg/kg, 0,1 mg/kg, 1 mg/kg, doses exceed the therapeutic one by 100-1000 times): no side effects
- effect on the ESR, erythrocyte resistance and biochemical indices of the blood serum ([3]; long-term administration): No significant effect
